Reference: patent US20090281126A1, “Organic Compounds” (Novartis AG, priority 2006, published 2009)

How the values were obtained:
adenosine A3 receptors = biological target: T1, adenosine A3 receptors (Homo sapiens, UniProt P0DMS8); assay: A3 [35S]-GTPGammaS binding functional assay (SPA, CHO membranes); assay type: biochemical; settings: agonist stimulation of [35S]-GTPγS binding
T1 construct: expressed in transfected cells; membranes prepared in house
T1 sequence (P0DMS8 1-318): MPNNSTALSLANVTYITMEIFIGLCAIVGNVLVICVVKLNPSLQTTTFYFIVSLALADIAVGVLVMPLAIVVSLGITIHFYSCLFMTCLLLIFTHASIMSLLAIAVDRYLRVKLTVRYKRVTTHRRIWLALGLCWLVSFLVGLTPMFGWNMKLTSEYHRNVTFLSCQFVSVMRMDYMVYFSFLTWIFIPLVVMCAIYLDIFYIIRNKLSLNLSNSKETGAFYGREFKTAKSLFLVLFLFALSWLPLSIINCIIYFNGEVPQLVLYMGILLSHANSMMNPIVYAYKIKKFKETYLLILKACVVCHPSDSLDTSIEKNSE
Description: To establish the functional response to compounds of this invention an assay was carried out measuring A3 agonist stimulation of [^35S]-GTPγS binding in membranes prepared from CHO cells stably expressing adenosine A3 receptors. The agonist-induced stimulation of binding of [^35S]-GTPγS to activated G proteins has been used as a functional assay for a variety of receptors, including adenosine receptors. See Lorenzen et al., Mol Pharmacol, Vol. 49, pp. 915-926 (1996); and Jacobson et al., Drug Dev Res Vol. 37, p. 131 (1996).
The conventional GTPγS binding assay described by Lorenzen et al (1996), supra, is a filtration based method and thus requires a separation step; we have modified this method to run as a SPA format so that it can be used in a semi-automated and homogenous formal. In the SPA assay membranes are captured by wheatgerm agglutinin (WGA) SPA beads, through a specific interaction between WGA and carbohydrate residues of glycoproteins on the surfaces for the membranes. Upon receptor stimulation, [^35S]-GTPγS binds specifically to the alpha subunit of the G-protein thus bringing the [^35S]-GTPγS into close proximity with the SPA beads. Emitted β particles from the [^35S]-GTPγS excite the scintillant in the beads and produce light.
The assay was performed in a final volume of 250 μL/well in a white non-binding surface 96-well Optiplate. […]

human A3 receptors = biological target: T2, human A3 receptors (Homo sapiens, UniProt P0DMS8); assay: A3 binding assay ([125I]-AB-MECA radioligand, CHO membranes); settings: [125I]-AB-MECA 0.25 nM
T2 construct: expressed in transfected cells; membranes prepared in house
T2 sequence (P0DMS8 1-318): T1 sequence (P0DMS8 1-318)
Description: Compounds in the present invention were tested in an A3 binding assay using the iodinated ligand [^125I]-AB-MECA with membranes prepared from CHO cells stably expressing human A3 receptors.
Radioligand binding to the CHO A3 membranes was performed using radio-labelled agonist [^125I]-AB-MECA at a concentration range of 0.002-5 nM to obtain saturation binding. Binding experiments were performed in duplicate using 2.5 μg membrane in a total volume of 200 μL of assay buffer. The non-specific binding was determined in the presence of 10 μM of the agonist I-AB-MECA.
The assay was performed in a final volume of 200 μL/well, in a U-bottomed polypropylene 96-well plate. […] Total binding was determined using 50 μL vehicle. Non-specific binding was determined using 50 μL of 40 μM I-AB-MECA, to give a final assay concentration of 10 μM. • 50 μL [^125I]-AB-MECA at a concentration of 1 nM (4×), to give a final assay concentration of 0.25 nM. • 100 μL CHO A3 membranes at a concentration of 25 μg/mL in assay buffer containing 4 U/mL adenosine deamin ase (ADA) (final assay concentration of 2 U/mL), to give a final assay concentration of 2.5 μg/well.
Compound dilution were prepared on a Biomek 2000 to give a series of 10 concentrations from 40-0.002 μM (4×). […] Total binding was determined in the absence of I-AB-MECA and non specific binding in the presence of 10 μM I-AB-MECA. […]

[1] = as described in WO 95/02604, cited from earlier work

| EC50 (adenosine A3 receptors) [nM] | Ki (human A3 receptors) [nM] | Compound | increase in basal or systemic blood pressure ([1]; administration of IB-MECA) [%] | basal or systemic blood pressure after administration ([1]; from about 70 mmHg) |
| --- | --- | --- | --- | --- |
| 11 | 0.91 | CC(=O)N[C@H]1C[C@@H](n2cnc3c(NCc4cccc(I)c4)nc(Cl)nc32)[C@H](O)[C@@H]1O [Example 1, N-{(1S,2R,3S,4R)-4-[2-Chloro-6-(3-iodobenzylamino)-purin-9-yl]-2,3-dihydroxycyclopentyl}-acetamide] |  |  |
|  |  | CNC(=O)[C@H]1O[C@@H](n2cnc3c(NCc4cccc(I)c4)ncnc32)[C@H](O)[C@@H]1O [IB-MECA] | 10 to 30 | about 90 mmHg |
